Source: patent publication US20070276025A1, “Indirubin-Type Compounds, Compositions, and Methods for Their Use” (priority 2003, published 2007)

Tests used:
[1] = system: GSK-3α (Tyr276) / GSK-3β (Tyr216); experiment: Tyrosine phosphorylation of GSK-3 in SH-SY5Y cells (Western blot); type: cell-based, human; settings: 1 μM, 12 hr
From the text: GSK-3α and GSK-3β activity is enhanced by the phosphorylation of a specific tyrosine residue (Tyr276 and Tyr216, respectively) (Hughes et al. (1993) EMBO J. 12: 803-808; Dajani et al. (2003) EMBO J. 22: 494-501). The tyrosine kinase responsible for this phosphorylation in mammals is unknown, but there is some evidence that it indirectly depends on GSK-3 activity (Bhat et al. (2000) Proc. Natl. Acad. Sci. U.S.A. 97: 11074-11079; Shaw et al. (1997) FEBS Lett. 416: 307-311). […] SH-SY5Y cells were exposed to IO, MeIO, BIO and MeBIO for 12 hr and the phosphorylation of Tyr276 (GSK-3α) and Tyr216 (GSK-3β) was estimated by Western blotting with phospho-specific antibodies. […] This was accompanied by an increased level in total GSK-3β, total β-catenin, and dephospho-&catenin.

[2] = system: 5L (AhR +/+) hepatoma cells; experiment: Cell viability MTT assay, 5L cells; type: cell-based, mouse; settings: range of concentrations, 24 and 48 hr
[3] = system: 5L (AhR +/+) hepatoma cells; experiment: FACS cell cycle analysis, 5L cells; type: cell-based, mouse
MAPKK = settings: Table 2, data from Hoessel et al. (1999); cited from earlier work
cGMP-dependent PK = settings: Table 2, data from Hoessel et al. (1999); cited from earlier work
protein kinase C γ = protein kinase C γ (Homo sapiens, UniProt P05129); design: made in house; settings: Table 2, data from Hoessel et al. (1999); cited from earlier work
protein kinase C δ = protein kinase C δ (Homo sapiens, UniProt Q05655); design: made in house; settings: Table 2, data from Hoessel et al. (1999); cited from earlier work
AhR = AhR (Homo sapiens, UniProt P35869)
Sequence of AhR (P35869 11-848): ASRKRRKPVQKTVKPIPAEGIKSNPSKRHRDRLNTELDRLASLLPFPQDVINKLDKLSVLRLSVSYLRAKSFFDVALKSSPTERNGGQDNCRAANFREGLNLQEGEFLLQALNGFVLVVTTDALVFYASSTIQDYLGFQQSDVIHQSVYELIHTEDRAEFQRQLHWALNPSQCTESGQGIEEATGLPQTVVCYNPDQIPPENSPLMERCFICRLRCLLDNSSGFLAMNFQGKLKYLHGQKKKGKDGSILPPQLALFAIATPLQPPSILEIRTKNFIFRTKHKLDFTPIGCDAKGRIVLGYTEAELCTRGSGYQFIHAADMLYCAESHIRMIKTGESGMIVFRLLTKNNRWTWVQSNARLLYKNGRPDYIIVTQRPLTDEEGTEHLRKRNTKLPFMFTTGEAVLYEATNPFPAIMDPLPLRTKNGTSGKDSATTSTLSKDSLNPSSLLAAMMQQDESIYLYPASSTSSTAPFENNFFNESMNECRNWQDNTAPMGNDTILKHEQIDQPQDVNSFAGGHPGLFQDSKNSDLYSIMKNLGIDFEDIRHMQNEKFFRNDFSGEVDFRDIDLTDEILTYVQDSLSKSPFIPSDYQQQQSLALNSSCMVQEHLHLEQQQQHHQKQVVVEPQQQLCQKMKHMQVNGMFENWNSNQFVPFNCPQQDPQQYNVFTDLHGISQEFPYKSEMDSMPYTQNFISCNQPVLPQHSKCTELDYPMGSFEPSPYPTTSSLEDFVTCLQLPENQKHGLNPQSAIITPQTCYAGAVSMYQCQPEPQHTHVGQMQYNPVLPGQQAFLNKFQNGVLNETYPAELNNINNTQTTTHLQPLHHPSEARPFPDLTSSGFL
Sequence of AhR (P27540 whole entry partner): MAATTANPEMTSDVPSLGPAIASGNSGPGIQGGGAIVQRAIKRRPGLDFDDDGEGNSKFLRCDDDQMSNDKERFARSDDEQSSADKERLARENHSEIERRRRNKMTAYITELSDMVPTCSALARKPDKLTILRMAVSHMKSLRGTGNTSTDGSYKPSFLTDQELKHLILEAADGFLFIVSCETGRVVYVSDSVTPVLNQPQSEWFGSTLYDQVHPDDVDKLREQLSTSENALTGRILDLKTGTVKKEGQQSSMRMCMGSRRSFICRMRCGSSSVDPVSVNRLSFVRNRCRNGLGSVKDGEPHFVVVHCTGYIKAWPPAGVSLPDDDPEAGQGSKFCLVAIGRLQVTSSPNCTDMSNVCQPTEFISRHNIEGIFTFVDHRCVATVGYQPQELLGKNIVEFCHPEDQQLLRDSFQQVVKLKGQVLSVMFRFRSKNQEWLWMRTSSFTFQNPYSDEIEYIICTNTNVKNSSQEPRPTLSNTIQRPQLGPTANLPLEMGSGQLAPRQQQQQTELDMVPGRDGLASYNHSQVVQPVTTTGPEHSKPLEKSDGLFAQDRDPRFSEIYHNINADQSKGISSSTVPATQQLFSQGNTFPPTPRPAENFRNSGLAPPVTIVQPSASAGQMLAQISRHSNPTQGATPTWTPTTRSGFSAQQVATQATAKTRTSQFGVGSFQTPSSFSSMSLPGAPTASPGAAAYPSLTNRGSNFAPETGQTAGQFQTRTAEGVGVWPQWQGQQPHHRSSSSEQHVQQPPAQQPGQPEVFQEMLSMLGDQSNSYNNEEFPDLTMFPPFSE

Sequence of protein kinase C δ (Q05655 whole entry): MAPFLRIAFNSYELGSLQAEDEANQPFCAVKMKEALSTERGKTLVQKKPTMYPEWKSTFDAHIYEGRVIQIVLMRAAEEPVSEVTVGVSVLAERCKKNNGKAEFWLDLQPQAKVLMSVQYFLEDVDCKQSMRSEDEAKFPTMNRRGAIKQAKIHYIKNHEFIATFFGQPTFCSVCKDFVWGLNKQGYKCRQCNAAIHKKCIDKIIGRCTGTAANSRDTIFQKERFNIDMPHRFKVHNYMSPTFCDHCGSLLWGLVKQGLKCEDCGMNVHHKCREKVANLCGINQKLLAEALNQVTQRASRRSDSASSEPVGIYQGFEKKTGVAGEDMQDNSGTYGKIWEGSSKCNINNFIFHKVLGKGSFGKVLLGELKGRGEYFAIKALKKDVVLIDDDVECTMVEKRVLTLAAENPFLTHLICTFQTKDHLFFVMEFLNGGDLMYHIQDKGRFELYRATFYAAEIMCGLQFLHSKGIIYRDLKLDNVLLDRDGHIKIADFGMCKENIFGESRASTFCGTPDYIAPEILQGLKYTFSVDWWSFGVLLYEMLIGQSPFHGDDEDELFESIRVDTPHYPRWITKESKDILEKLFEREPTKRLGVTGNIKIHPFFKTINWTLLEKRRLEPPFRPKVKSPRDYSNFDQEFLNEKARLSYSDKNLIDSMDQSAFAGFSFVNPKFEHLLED

Question: For `O=C1Nc2ccccc2/C1=C1/Nc2ccccc2/C1=N\O` [7h, indirubin-3′-oxime], which “level of tyrosine phosphorylation of both GSK-3 isoforms” value [1] is on record?
Answer: dramatically reduced

Question: What about the “survival of 5L cells (MTT)” value [2] of the same compound?
Answer: equally sensitive to IO and BIO

Question: And the “accumulation of 5L cells in G1 phase” value [3]?
Answer: modest (but detectable)

Question: What about the IC50 (MAPKK) of the same compound?
Answer: > 100 µM

Question: What about the IC50 (cGMP-dependent PK) of the same compound?
Answer: 9 µM

Question: And the IC50 (protein kinase C γ)?
Answer: 8.4 µM

Question: What about the IC50 (protein kinase C δ) of the same compound?
Answer: > 100 µM

Question: Which EC50 (AhR) does the source give for `CC(=O)ON=C1C(=C2C(=O)Nc3cc(Br)ccc32)Nc2ccccc21` [8a, 6-Bromoindirubin-3′-acetoxime] here?
Answer: ≥ 100 nM
